Source: EP0094245A2, “Dihydronaphthyridine derivatives, their preparation and compositions containing them” (SANKYO COMPANY LIMITED, priority 1982, dated 1983)

Tests used:
Male Wistar rats [1] = assay: Carrageenin oedema test for anti-inflammatory activity; type: in vivo; details: Rattus norvegicus, po, inhibitory rate, 100 mg/kg per os, paw volume 3 hours after carrageenin injection
Method: Details of certain of the pharmacological tests are as follows: • Carrageenin oedema test for anti-inflammatory activity
Male Wistar rats weighing 120-150 g were fasted overnight and then received a test compound per os as an aqueous tragacanth suspension. 30 minutes later, inflammation was induced by the subcutaneous injection of 0.05 ml of a 1% carrageenin suspension into the plantar tissue of a hind paw of each rat [Winter et al., Proc. Soc. Exp. Biol. Med., 111, 544 (1962)]. The anti-oedema activity was measured volumetrically, by assessing the response, as calculated from the following equation: [formula] where Vo and V represent, respectively, the paw volume immediately before and 3 hours after the carrageenin injection. The test compounds were administered at a dose of 100 mg/kg and the results are reported in the following Table as the inhibitory rate, that is the percentage inhibition of the […].

Male Wistar rats [2] = assay: Pain test for analgesic activity (modified Randall-Selitto, Brewers' yeast inflamed paw); type: in vivo; details: po; number of effective animals / total number of animals in group; 50 mg/kg orally; pain threshold 1 and 2 hours after administration; effective = at least twice mean pain threshold of controls
Method: Pain test for analgesic activity
This test was conducted according to a modification of the method reported by L.O. Randall and J.J. Selitto in Arch. Int. Pharmacodyn., 11, 409 (1959), proposed by Winter and Flatake (1957).
Male Wistar rats of 4 weeks of age and weighing 60-90 g were injected with 0.1 ml of a 20% by weight suspension of Brewers' yeast in the right hind paw. […] Each of these was given orally a test compound as an aqueous tragacanth suspension at a dose of 50 mg/kg. 1 and 2 hours after administration of the test compound, the pain threshold was determined by observing pain responses (such as struggling or squeaking) when the inflamed or normal paw was subjected to pressure by a machine (Ugo-Basile). […] The results are reported as the number of effective animals as a proportion of the total number of animals in each group.

Row | Structure (SMILES) | inhibition in vivo at 100 mg/kg (Male Wistar rats [1]) | responders at 50 mg/kg (Male Wistar rats [2])
1 | COc1ccc2c(n1)C(C)=CC(C)(C)N2 [Compound No. 1, 6-methoxy-2,2,4-trimethyl-1,2-dihydro-1,5-naphthyridine] | 62.6% | 60%
2 | CCOc1ccc2c(n1)C(C)=CC(C)(C)N2 [Compound No. 2, 6-ethoxy-2,2,4-trimethyl-1,2-dihydro-1,5-naphthyridine] | 58.2% | 20%
3 | CCCCOc1ccc2c(n1)C(C)=CC(C)(C)N2 [Compound No. 4, 6-butoxy-2,2,4-trimethyl-1,2-dihydro-1,5-naphthyridine] | 65.4% | 60%
4 | CC1=CC(C)(C)Nc2ccc(Oc3ccccc3)nc21 [Compound No. 5, 2,2,4-trimethyl-b-phenoxy-1,2-dihydro-1,5-naphthyridine] | 53.6% | 60%
5 | CC1=CC(C)(C)Nc2ccc(Cl)nc21 [Compound No. 13, 6-chloro-2,2,4-trimethyl-1,2-dihydro-1,5-naphthyridine] | 56.6% | 60%
6 | COc1ccc2c(n1)C(C)=CC(C)(C)N2C [Compound No. 25, 6-methoxy-1,2,2,4-tetramethyl-1,2-dihydro-1,5-naphthyridine] | 54.8% | 40%
7 | COc1ccc2c(n1)C(C)=CC(C)(C)N2C(C)=O [Compound No. 27, 1-acetyl-6-methoxy-2,2,4-trimethyl-1,2-dihydro-1,5-naphthyridine] | 53.3% | 20%
8 | CC1=CC(C)(C)Nc2ccc(Oc3cccnc3)nc21 [compound 18, 2,2,4-trimethyl-6-(3-pyridyloxy)-1,2-dihydro-1,5-naphthyridine] | 76% | 80%
